In patent publication US7442501B2, “SQV nucleic acids and polypeptides” (Massachusetts Institute of Technology, priority 2002, dated 2008):

Columns and labels:
[1] = molecular target: T1, SQV-4 (Caenorhabditis elegans, UniProt Q19905, T2A); format: biochemical, C. elegans; details: for NAD+ reduction: UDP-glucose replaced, 100 μM NAD+ and 250 μM nucleotide sugar
T1 construct: were used for PCR-amplification of the sqv-4 ORF, and the resulting product was digested with NcoI and XhoI and cloned into pET21d; made in house; host or cells: E. coli BL21 pLysS, pET21d; soluble fraction used without purification
Description: (§1) The sqv-4 coding sequences corresponding to the wild-type, n2827, and n2840 alleles were cloned into the pET21d E. coli expression vector and transformed into BL21 pLysS. The oligonucleotides 5′-[…]-3′ (SEQ ID NO:53) and 5′-[…]-3′ (SEQ ID NO:54) were used to generate R353H n2827 and T4101 n2840 mutations, respectively, by site-directed mutagenesis. The oligonucleotides 5′-[…]-3′ (SEQ ID NO:55) and 5′-[…]-3′ (SEQ ID NO:56) were used for PCR-amplification of the sqv-4 ORF, and the resulting product was digested with NcoI and XhoI and cloned into pET21d. All three proteins have a threonine to alanine mutation in the second amino acid because of the addition of an NcoI site at the 5′ end. SQV-4 expression was induced by incubation with 1 mM IPTG for three to four hours at 37° C. E. coli were pelleted and resuspended in 50 mM Tris-HCl pH 7.5, 1 mM DTT, 1 mM EDTA, 1 mM PMSF, 2 μg/ml pepstatin A, and aprotinin and lysed using a French pressure cell. The soluble fraction was separated from the insoluble inclusion bodies by centrifugation at 12,000 g for 20 minutes.
(§2) All assays were performed at room temperature (20 to 22° C.) in 50 mM Tris-HCl, 2 mM dithiothrietol (DTT), pH 8.7. The initial velocity of the reaction was determined from time points during the first 60 seconds after addition of the SQV-4 extract.

[2] = molecular target: T2, Protein A-SQV-2 fusion protein (Caenorhabditis elegans, UniProt Q9N491); assay: Galactosyltransferase II assay, acceptor substrate specificity; format: biochemical, C. elegans; details: for acceptor for glycosylation by SQV-2: UDP-[3H]galactose with various acceptor substrates; for Enzyme Activity: acceptor 5 mM, donor UDP-[3H]galactose
T2 construct: protein A (modified, secreted); made in house; host or cells: COS7 cells, transient transfection; purified from culture supernatant on IgG-agarose
Protocol: We assayed a recombinant Protein A-SQV-2 fusion protein expressed in COS7 cells for galactosyltransferase II activity.
Galactosyltransferase activity was assayed in vitro using UDP-[^3H]galactose together with various acceptor substrates.
A sqv-2 coding sequence encoding amino acids 25 to 330 of SQV-2, thus lacking the transmembrane domain at the amino terminus, was cloned into pDEST-CMV-protA vector as follows. The oligonucleotides 5′-[…]-3′ (SEQ ID NO:45) and 5′-[…]-3′ (SEQ ID NO:46) were used as the primers for PCR-amplification, and the resulting product was digested with EcoRI and XhoI and cloned into pENTR3C. The Gateway LR cloning reaction (Invitrogen) was used to transfer the sqv-2 ORF lacking TM into the Gateway destination vector pDEST-CMV-protA to generate a modified amino-terminal protein A fusion protein using the CMV promoter. The plasmid pDEST-CMV-protA was constructed by cloning the Gateway C.1 reading frame cassette, from the manufacturer, into pRK5F10ProteinA (Wei et al., Proc. Natl. Acad. Sci. USA 90:3885-8, 1993), which was digested with EcoRI and blunted using dNTPs, Klenow fragment and T4 DNA polymerase. This plasmid was designed to express a secreted protein A-SQV-2 (amino acids 25-330) fusion protein in mammalian cells.
COS7 cells were transiently transfected with pDEST-CMV-protA-sqv-2 using LIPOFECTAMINE (3:1 (w/w) liposome formulation of the polycationic lipid 2,3-dioleyloxy-N-[2(sperminecarboxamido)ethyl]-N,N-dimethyl-1-propanaminium trifluoroacetate (DOSPA) (Chemical Abstracts Registry name: N-[2-(2,5-bis[(3-aminopropyl)amino]-1-oxpentyl}amino)ethyl]-N,N-dimethyl-2,3-bis(9-octadecenyloxy)-1-propanaminium trifluoroacetate), and the neutral lipid dioleoyl phosphatidylethanolamine (DOPE) in membrane filtered water) (Life Technologies) in accordance with the manufacturer's instructions. […] After seventy-two hours of incubation, the fusion protein was recovered and purified from the cell culture supernatant by affinity chromatography using IgG-agarose (Wei et al., Proc. Natl. Acad. Sci. USA 90:3885-8, 1993).
Galactosyltransferase II activity was assayed using UDP-[1-^3H]Gal (NEN Life Sciences Products, 12.8 Ci/mmol) and various mono- and di-saccharide acceptor substrates, including Xylβ-O-benzyl (Bn), Xylβ-O-naphthol, Galβ-O-naphthalenemethanol (NM), GalNAcβ-O-NM, GlcNAcβ-O-NM, Galβ,14Xylβ-O-Bn, Galβ1,3GlcNAc α-O-NM, Galβ1,3Galβ-O-NM, Galβ1,4GlcNAcβ-O-NM, Galβ1,3GlcNAcβ-O-NM, GlcNAcβ1,3Galβ-O-NM, Manaα,1,6Man α-O-decenyl (Lugemwa et al., J. Biol. Chem. 271:19159-65, 1996; Sarkar et al., Carbohydr Res 329:221-33, 2000; Brown et al., Bioorg. Med. Chem. 9:815-24, 2001). […] After incubation at room temperature for 3 hours, the reaction products were diluted with 1 mL of 0.5 M NaCl and applied to a Sep-Pak C18 (100 mg; Waters). After washing with 5 ml of 0.5 M NaCl and water, the radiolabeled products were eluted with 50% methanol, dried and counted by liquid scintillation.

[3] = molecular target: UDP-glucose dehydrogenase (Escherichia coli, UniProt P76373); details: cited from earlier work
[4] = molecular target: Streptococcus pyogenes UDP-glucose dehydrogenase (Streptococcus pyogenes, UniProt P0C0F4); details: cited from earlier work
[5] = molecular target: T3, chicken UDP-glucose dehydrogenase (Gallus gallus, UniProt Q5F3T9); details: cited from earlier work
T3 sequence (Q5F3T9 1-494): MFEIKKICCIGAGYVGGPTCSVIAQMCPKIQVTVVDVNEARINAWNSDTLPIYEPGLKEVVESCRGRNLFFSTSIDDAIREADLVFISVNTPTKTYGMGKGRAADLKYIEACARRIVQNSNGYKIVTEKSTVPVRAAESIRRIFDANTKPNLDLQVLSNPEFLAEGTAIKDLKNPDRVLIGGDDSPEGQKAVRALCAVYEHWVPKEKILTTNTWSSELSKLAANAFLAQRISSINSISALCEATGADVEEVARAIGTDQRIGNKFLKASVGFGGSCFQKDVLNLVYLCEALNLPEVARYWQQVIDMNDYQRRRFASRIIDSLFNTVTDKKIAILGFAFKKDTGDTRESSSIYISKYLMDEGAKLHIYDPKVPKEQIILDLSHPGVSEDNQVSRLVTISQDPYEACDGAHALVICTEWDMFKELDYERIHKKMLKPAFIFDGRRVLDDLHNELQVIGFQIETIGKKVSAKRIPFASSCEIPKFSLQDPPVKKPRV

[6] = molecular target: T4, SQV-4 (Caenorhabditis elegans, UniProt Q19905, R353H/T2A); format: biochemical, C. elegans; details: bacterially expressed mutant protein
T4 construct: were used for PCR-amplification of the sqv-4 ORF, and the resulting product was digested with NcoI and XhoI and cloned into pET21d; made in house; host or cells: E. coli BL21 pLysS, pET21d; soluble fraction used without purification
Description: as §1, §2

T2 sequence (Q9N491 25-330): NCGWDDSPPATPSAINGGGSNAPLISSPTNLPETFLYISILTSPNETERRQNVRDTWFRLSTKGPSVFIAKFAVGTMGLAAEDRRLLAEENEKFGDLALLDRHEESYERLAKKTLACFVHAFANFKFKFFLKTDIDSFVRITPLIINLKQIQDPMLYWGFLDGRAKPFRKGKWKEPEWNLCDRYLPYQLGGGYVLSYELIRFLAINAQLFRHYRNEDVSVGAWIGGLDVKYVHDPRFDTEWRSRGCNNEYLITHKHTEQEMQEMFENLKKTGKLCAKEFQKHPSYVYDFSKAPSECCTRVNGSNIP
T1 sequence (Q19905 whole entry T2A): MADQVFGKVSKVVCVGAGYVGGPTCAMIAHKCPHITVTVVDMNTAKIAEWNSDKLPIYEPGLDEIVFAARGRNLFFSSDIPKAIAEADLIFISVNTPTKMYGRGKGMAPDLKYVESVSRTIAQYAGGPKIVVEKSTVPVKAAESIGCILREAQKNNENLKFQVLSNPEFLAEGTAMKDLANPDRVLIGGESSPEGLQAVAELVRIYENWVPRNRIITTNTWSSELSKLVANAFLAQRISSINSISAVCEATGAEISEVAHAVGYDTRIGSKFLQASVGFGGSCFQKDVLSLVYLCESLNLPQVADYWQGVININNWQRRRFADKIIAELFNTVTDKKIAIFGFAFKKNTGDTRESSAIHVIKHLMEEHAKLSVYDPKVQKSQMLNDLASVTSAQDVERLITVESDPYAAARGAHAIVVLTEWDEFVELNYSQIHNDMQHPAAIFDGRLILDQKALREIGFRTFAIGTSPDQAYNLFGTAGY
T4 sequence (Q19905 whole entry T2A/R353H): as the sequence (Q19905 whole entry T2A) above, with R353H counted along it
Chain of Streptococcus pyogenes UDP-glucose dehydrogenase (P0C0F4 whole entry): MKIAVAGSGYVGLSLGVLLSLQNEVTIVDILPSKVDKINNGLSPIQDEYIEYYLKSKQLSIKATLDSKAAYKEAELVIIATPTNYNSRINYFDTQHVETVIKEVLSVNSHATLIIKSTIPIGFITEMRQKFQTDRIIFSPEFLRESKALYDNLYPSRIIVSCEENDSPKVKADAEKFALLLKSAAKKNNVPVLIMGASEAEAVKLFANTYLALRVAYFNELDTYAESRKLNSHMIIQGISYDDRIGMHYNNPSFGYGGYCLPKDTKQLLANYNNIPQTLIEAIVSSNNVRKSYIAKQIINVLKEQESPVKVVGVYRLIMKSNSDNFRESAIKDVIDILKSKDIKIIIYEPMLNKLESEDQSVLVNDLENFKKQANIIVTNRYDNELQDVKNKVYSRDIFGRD

## Nc1ncnc2c1ncn2[C@@H]1O[C@H](COP(=O)(O)OP(=O)(O)O[C@H]2O[C@H](CO)[C@@H](O)[C@H](O)[C@H]2O)[C@@H](O)[C@H]1O [ADP-glucose]
[1]
  NAD+ reduction: undetectable

## Cc1cn([C@H]2C[C@H](O)[C@@H](COP(=O)(O)OP(=O)(O)O[C@H]3O[C@H](CO)[C@@H](O)[C@H](O)[C@H]3O)O2)c(=O)[nH]c1=O [TDP-glucose]
[1]
  NAD+ reduction: undetectable

## CC(=O)N[C@H]1[C@@H](OP(=O)(O)OP(=O)(O)OC[C@H]2O[C@@H](n3ccc(=O)[nH]c3=O)[C@H](O)[C@@H]2O)O[C@H](CO)[C@@H](O)[C@@H]1O [UDP-N-acetyl-glucosamine]
[1]
  NAD+ reduction: undetectable

## O[C@@H]1[C@@H](O)[C@H](OCc2ccc3ccccc3c2)OC[C@H]1O [Xylβ1-O-naphthol, xylose-(β1)-O-naphthalenemethanol]
[2]
  acceptor for glycosylation by SQV-2: None of the other acceptors tested acted as an acceptor
  Enzyme Activity: 0 pmol/h/mL medium

## O[C@@H]1[C@@H](O)[C@H](OCc2ccccc2)OC[C@H]1O [Xylβ1-O-Bn, xylose-(β1)-O-benzyl]
[2]
  acceptor for glycosylation by SQV-2: None of the other acceptors tested acted as an acceptor
  Enzyme Activity: 0 pmol/h/mL medium

## NC(=O)c1ccc[n+]([C@@H]2O[C@H](COP(=O)([O-])OP(=O)(O)OC[C@H]3O[C@@H](n4cnc5c(N)ncnc54)[C@H](O)[C@@H]3O)[C@@H](O)[C@H]2O)c1 [NAD^+]
[3]
  Km: 50 µM
[4]
  Km: 60 µM
[5]
  Km: 900 µM
[1]; double-reciprocal plot of initial velocities, bacterially expressed SQV-4
  Km: 200 µM

## OC[C@H]1O[C@@H](O[C@@H]2CO[C@@H](OCc3ccccc3)[C@H](O)[C@H]2O)[C@H](O)[C@@H](O)[C@H]1O [Galβ1,4Xylβ1-O-Bn, galactose-(β1,4)-xylose(β1)-O-benzyl]
[2]
  acceptor for glycosylation by SQV-2: specifically catalyzed addition of galactose
  Enzyme Activity: 2660 pmol/h/mL medium

## CC(=O)N[C@H]1[C@H](OCc2ccccc2)O[C@H](CO)[C@H](O)[C@@H]1O [GalNAcβ1-O-Bn]
[2]
  Enzyme Activity: 0 pmol/h/mL medium

## Nc1ccn([C@@H]2O[C@H](COP(=O)(O)OP(=O)(O)O[C@H]3O[C@H](CO)[C@@H](O)[C@H](O)[C@H]3O)[C@@H](O)[C@H]2O)c(=O)n1 [CDP-glucose]
[1]
  NAD+ reduction: undetectable

## C=CCCCCCCCCO[C@H]1O[C@H](CO[C@H]2O[C@H](CO)[C@@H](O)[C@H](O)[C@@H]2O)[C@@H](O)[C@H](O)[C@@H]1O [Manα1,6Manα1-O—C10]
[2]
  Enzyme Activity: 0 pmol/h/mL medium

## Nc1nc2c(ncn2[C@@H]2O[C@H](COP(=O)(O)OP(=O)(O)O[C@H]3O[C@H](CO)[C@@H](O)[C@H](O)[C@H]3O)[C@@H](O)[C@H]2O)c(=O)[nH]1 [GDP-glucose]
[1]
  NAD+ reduction: undetectable

B1: SQV-4 protein that contained a histidine for arginine substitution at amino acid position 353: bacterially expressed mutant SQV-4 corresponding to the sqv-4 mutant allele n2827 (protein, UniProt Q19905 1-481, looked up, variant R353H)
UDP-glucose 6-dehydrogenase: MTDQVFGKVSKVVCVGAGYVGGPTCAMIAHKCPHITVTVVDMNTAKIAEWNSDKLPIYEPGLDEIVFAARGRNLFFSSDIPKAIAEADLIFISVNTPTKMYGRGKGMAPDLKYVESVSRTIAQYAGGPKIVVEKSTVPVKAAESIGCILREAQKNNENLKFQVLSNPEFLAEGTAMKDLANPDRVLIGGESSPEGLQAVAELVRIYENWVPRNRIITTNTWSSELSKLVANAFLAQRISSINSISAVCEATGAEISEVAHAVGYDTRIGSKFLQASVGFGGSCFQKDVLSLVYLCESLNLPQVADYWQGVININNWQRRRFADKIIAELFNTVTDKKIAIFGFAFKKNTGDTHESSAIHVIKHLMEEHAKLSVYDPKVQKSQMLNDLASVTSAQDVERLITVESDPYAAARGAHAIVVLTEWDEFVELNYSQIHNDMQHPAAIFDGRLILDQKALREIGFRTFAIGTSPDQAYNLFGTAGY
[6]
  decrease in UDP-glucose dehydrogenase activity: greater than 20 fold

B2: wild-type SQV-4 protein: recombinant SQV-4 protein expressed in E. coli, soluble lysate fraction (protein, UniProt Q19905 1-481, looked up)
UDP-glucose 6-dehydrogenase: MTDQVFGKVSKVVCVGAGYVGGPTCAMIAHKCPHITVTVVDMNTAKIAEWNSDKLPIYEPGLDEIVFAARGRNLFFSSDIPKAIAEADLIFISVNTPTKMYGRGKGMAPDLKYVESVSRTIAQYAGGPKIVVEKSTVPVKAAESIGCILREAQKNNENLKFQVLSNPEFLAEGTAMKDLANPDRVLIGGESSPEGLQAVAELVRIYENWVPRNRIITTNTWSSELSKLVANAFLAQRISSINSISAVCEATGAEISEVAHAVGYDTRIGSKFLQASVGFGGSCFQKDVLSLVYLCESLNLPQVADYWQGVININNWQRRRFADKIIAELFNTVTDKKIAIFGFAFKKNTGDTRESSAIHVIKHLMEEHAKLSVYDPKVQKSQMLNDLASVTSAQDVERLITVESDPYAAARGAHAIVVLTEWDEFVELNYSQIHNDMQHPAAIFDGRLILDQKALREIGFRTFAIGTSPDQAYNLFGTAGY
[1]; lysates vs lysates with vector alone or mutant SQV-4 protein
  UDP-glucose dehydrogenase activity increase: at least 20 fold
